The assay has as its system CEM cells HIV-1 protection, formazan growth assay. Kind of assay: NCI AIDS Antiviral Assay. The settings on record: for IC50: measured here: growth of uninfected CEM cells. In a few lines:
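Screen of anti-HIV-1 activity in human CEM cells using a formazan-based growth measurement at five drug concentrations. Hits with 50% or greater protection were repeated, and confirmation required reproducible complete protection.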

Activity calls are given as the source filed them.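 Rule for the calls: active = compounds giving half or more protection of infected cells from virus-caused growth loss, again on retest; inactive = the rest.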

What is called EC50 is the concentration giving half of the maximal effect. For orientation: IC50 means the concentration at which inhibition is half-maximal. A high value points to lower potency. For `C1=Nc2ccc(cc2)-c2ccc(cc2)N=Cc2ccc(cc2)OCc2cccc(n2)COc2ccc1cc2`, the EC50 is more than 100 µM and the IC50 is more than 100 µM.
As to `Nc1nc(N)c(-c2ccc(Cl)c(Cl)c2)c(C[P+](c2ccccc2)(c2ccccc2)c2ccccc2)n1`, the EC50 was more than 200 µM and the IC50 was found to be 1.05 µM.
Taken in the same sequence, the figures for `O=C1CCCNn2c(nc3ncccc3c2=O)N1` were more than 200 µM and 158 µM.
Regarding `O=S1(=O)CCCS(=O)(=O)C1CC1S(=O)(=O)CCCS1(=O)=O`, the EC50 is more than 245 µM and the IC50 is more than 245 µM.
On to `COC(=O)[C@H](Cc1ccccc1)NC(=O)NCCN(CCNC(=O)N[C@@H](Cc1ccccc1)C(=O)OC)C(=O)N[C@@H](Cc1ccccc1)C(=O)OC`, for which the EC50 was more than 200 µM and the IC50 was determined as 33.9 µM.
On to `COc1ccc(-c2coc3c4c(ccc3c2=O)OCO4)cc1OC`, for which the outcome was inactive.
For `COc1ccc(OC)c2c1C(=O)C1CC1(Br)C2=O` (centres undefined), the outcome was inactive.
On the same count and under the same terms, the entry for `Cc1cccc(O)c(=O)c1` is “inactive”.
As to `NC(=S)N/N=C(/CC(=O)c1ccc([N+](=O)[O-])cc1)C(=O)Nc1ncc([N+](=O)[O-])s1`, the EC50 was more than 83.2 µM and the IC50 is 81.3 µM.
Taken in the same sequence, the figures for `O=c1[nH]c2ccccc2nc1/C=C/NC(=S)Nc1ccccc1` were more than 200 µM and more than 200 µM.
Regarding `COc1nc2ncn(C(C)=O)c2c(=O)n1C`, the result was inactive.
Turning to `CCN(CC)CC(=O)Nc1cc(Cl)ccc1OC`, the EC50 was more than 200 µM and the IC50 was 178 µM.
Taken in the same sequence, the figures for `CC1C(n2[nH]c(=O)n(C)c2=O)c2ccccc2-n2c(=O)n(C)c(=O)n21` (centres undefined) were more than 64.6 µM and more than 64.6 µM.
Taken in the same sequence, the figures for `CS(=O)(=O)OCCn1cnc2nc(NC(=O)c3ccccc3)[nH]c(=O)c21` were more than 182 µM and more than 182 µM.
Taken in the same sequence, the figures for `CN(C)CCCNc1ccnc2cc([N+](=O)[O-])ccc12` were more than 200 µM and 12.9 µM.
On to `CN1C(=O)CC(Sc2ccccc2)c2cc(Cl)ccc21` (centres undefined), for which the EC50 was more than 200 µM and the IC50 is 15.8 µM.
As to `CC[C@H]1CC(=O)c2c(cc3c(c2O)C(=O)c2ccccc2C3=O)[C@@]1(C#N)C(=O)OC(C)(C)C`, the result was inactive.
For `CCOC(=O)c1ccc(CSc2ccc(Cl)cc2)c([N+](=O)[O-])c1`, the EC50 is more than 102 µM and the IC50 was more than 102 µM.
On to `CC1CCC2C(C)C3C(CC4C5CC=C6CC(O)CCC6(C)C5CCC43COC(=O)c3ccccc3)N2C1` (centres undefined), for which the EC50 is more than 69.2 µM and the IC50 was more than 69.2 µM.
In the case of `Cc1csc2c(P(=O)(OC(C)C)OC(C)C)c(-c3ccccc3)cn12`, the EC50 was more than 200 µM and the IC50 is 33.1 µM.
Taken in the same sequence, the figures for `[O-]c1c2cc(-[n+]3c(-c4ccccc4)cc(-c4ccccc4)cc3-c3ccccc3)cc1COCCOCCOCCOCCOC2` were more than 200 µM and 36.3 µM.
`Cc1ccc(S(=O)(=O)CN2C(=O)C(c3ccccc3)(c3ccccc3)C23OC(c2ccc(Cl)cc2)=CC3=O)cc1` (centres undefined): the EC50 is more than 200 µM and the half-maximal inhibitory concentration (IC50) is more than 200 µM.
Regarding `CCOc1ccc2nc(NC(=O)C(=O)C(C(=O)c3ccccc3F)C3OC(=O)c4ccccc43)sc2c1` (centres undefined), the EC50 was more than 182 µM and the half-inhibitory concentration (IC50) was found to be 8.13 µM.
As to `Cc1cn(C2CC(ON)C(CO)O2)c(=O)[nH]c1=O` (centres undefined), the EC50 was more than 200 µM and the IC50 was more than 200 µM.
For the compound `CCOC(=O)C1=C(Nc2ccc(Cl)cc2Cl)OC/C1=N\NS(=O)(=O)c1ccc(C)cc1`, the EC50 was more than 28.2 µM and the IC50 was more than 28.2 µM.
As for `Cc1nn(C(=O)c2ccccc2O)c2c1C(c1ccc([N+](=O)[O-])cc1)SC(N)=N2` (centres undefined), the EC50 is more than 2 µM and the IC50 stood at 0.389 µM.
Taken in the same sequence, the figures for `O=C(NNC1=NCCCCN1)Nc1ccc(Cl)cc1` were 107 µM and more than 200 µM.
Take `Cc1ccnc2c1C(=O)C(=O)C=C2N1CCCCC1`: the outcome was inactive.
Turning to `CO[C@H](C(=O)O[C@H]1C(=O)N2CC[C@@H]3CCC[C@H]1C32C)c1ccccc1` (some centres undefined), the EC50 was more than 724 µM and the IC50 was 437 µM.
In the case of `CCOC(=O)NN(C(=O)OCC)C(C(=O)C1CCCCC1)N(NC(=O)OCC)C(=O)OCC`, the result was inactive.
For the compound `CC1(C)CC(=O)c2c(nc3ccc4ccccc4c3c2-c2ccc(NC(=O)CCCC(=O)Nc3ccc(-c4c5c(nc6ccc7ccccc7c46)CC(C)(C)CC5=O)cc3)cc2)C1`, the EC50 is more than 100 µM and the IC50 was more than 100 µM.
Turning to `CS(=O)(=O)N1CC(CCl)c2ccc(S)cc21` (centres undefined), the outcome was inactive.
With `CC/C=C\C/C=C\C/C=C\CCCCCCCC(=O)NC(CCC(N)=O)C(=O)O` (centres undefined), the EC50 was more than 200 µM and the IC50 stood at 43.7 µM.
Regarding `Clc1ccc(/C=N/N=C/c2ccc(Cl)cc2)cc1`, the outcome was inactive.
As to `CCOC(=O)/C=C/[C@H](O[Si](c1ccccc1)(c1ccccc1)c1ccccc1)C(C)(C)C`, the EC50 was more than 200 µM and the IC50 was more than 200 µM.
Consider `N#CCCC1C(C#N)C2CC1C1C3C=CC(C3)C21` (centres undefined), for which the EC50 was more than 200 µM and the IC50 was more than 200 µM.
`CCOC(=O)C/C=C\S[C@@H]1[C@H](NC(=O)COc2ccccc2)C(=O)N1C(C(=O)OCc1ccc([N+](=O)[O-])cc1)=C(C)C`: the EC50 is more than 4.37 µM and the half-maximal inhibitory concentration (IC50) is more than 4.37 µM.
Turning to `CCOC(=O)C1(O)Nc2ncncc2N(C)C1=O` (centres undefined), the EC50 was more than 200 µM and the IC50 is more than 200 µM.
On to `O=P1(O)c2ccccc2-c2ccccc21`, for which the EC50 was more than 200 µM and the IC50 was more than 200 µM.
Take `Cc1ccc(-c2c3nc(c(-c4ccc(C)cc4)c4ccc([nH]4)c(-c4ccc(C)cc4)c4nc(c(-c5ccncc5)c5ccc2[nH]5)C=C4)C=C3)cc1.Cc1ccc(-c2c3nc(c(-c4ccc(C)cc4)c4ccc([nH]4)c(-c4ccc(C)cc4)c4nc(c(-c5ccncc5)c5ccc2[nH]5)C=C4)C=C3)cc1.O=S(=O)([O-])C(F)(F)F.[Pd+2].c1ccc([PH+](CCC[PH+](c2ccccc2)c2ccccc2)c2ccccc2)cc1`: the EC50 is more than 50.1 µM and the IC50 amounted to 3.47 µM.
For `C=C(C)C(=Nc1ccc(Cl)c(Cl)c1)N(C)C`, the result was inactive.
Turning to `Cc1nc(C)c(N2CCNCC2)c(=O)[nH]1`, the outcome was inactive.
In the case of `CN1CCN=C(c2ccccc2)c2cc(Cl)ccc21`, the EC50 is more than 200 µM and the IC50 turned out to be 105 µM.
Taken in the same sequence, the figures for `c1csc(-c2csc(-c3cccs3)c2)c1` were more than 200 µM and 40.7 µM.
Taken in the same sequence, the figures for `Cc1ccc(Nc2nc3c(=O)n(C)c(=O)n(C)c3nc2Nc2ccc(C)cc2)cc1` were more than 200 µM and 2.04 µM.
On to `N#Cc1nc(-c2cnccn2)oc1N`, for which the EC50 was more than 200 µM and the IC50 was found to be 182 µM.
Taken in the same sequence, the figures for `O=C(OCCNC(=O)N1CCOCC1)OCCNC(=O)N1CCOCC1` were more than 200 µM and more than 200 µM.
With `C=C1C(=O)O[C@@H]2C[C@@H](C)[C@@H]3C=CC(=O)[C@@]3(C)[C@@H](O)[C@H]12`, the EC50 is more than 9.55 µM and the IC50 came out at 0.513 µM.
Taken in the same sequence, the figures for `Cn1c2ccccc2n2c3ccccc3c(=S)c(C#N)c12` were more than 100 µM and more than 100 µM.
Taken in the same sequence, the figures for `Clc1ccccc1C[P+](c1ccccc1)(c1ccccc1)c1ccccc1` were more than 200 µM and 4.57 µM.

(Values after PubChem BioAssay AID179 (DTP/NCI, 2004).)
